Results published in US11311013B2, “Benzimidazole compound or salt thereof, agricultural and horticultural insecticidal and acaricidal agent containing said compound, and method for using same” (NIHON NOHYAKU CO., LTD., priority 2018, dated 2022).

These molecules were tested on Two-spotted spider mite (Tetranychus urticae) (assay: Acaricidal action on two-spotted spider mite, kidney bean leaf disk spray). Conditions: 500 ppm, 25° C., two days after treatment.
Type: in vivo
Procedure: Acaricidal Action on Two-Spotted Spider Mite (Tetranychus urticae)
Leaf disk having a diameter of 2 cm was prepared by leaves of kidney bean, and the leaf disk was placed on the wetted filter paper. Adult hens of two-spotted spider mite were inoculated on the wetted filter paper, and then 50 ml of an agrochemical dispersion, prepared by diluting a formulation containing the benzimidazole compound represented by the general formula (1) of the present invention or salt thereof as an active ingredient to adjust each of the concentrations to 500 ppm, was sprayed on turntable uniformly. After the spraying, it was allowed to stand in a thermostatic chamber at 25° C. Two days after the treatment of an agrochemical dispersion, the dead mites were counted, the corrected mortality rate was calculated according to the formula shown below, and the acaricidal efficacy was evaluated according to the criteria of Test Example 2. This test was conducted in duplicate using 10 adult hens of two-spotted spider per plot. Corrected mortality (%)=(Number of dead mites in a non-treatment plot−Number of dead mites in a treatment plot)/(Number of dead mites in a non-treatment plot)×100 [Expression 4]

Question: `CCS(=O)(=O)n1c(-c2ccc(OCC(F)(F)F)nc2)nc2ccccc21` [Compound 1-1] was tested. Which “acaricidal efficacy (corrected mortality rate) activity level” value (“acaricidal efficacy” for short) did it give?
Answer: The value was “D or higher”.

Question: `CCS(=O)(=O)n1c(-c2ccc(OCC(F)(F)C(F)(F)F)nc2)nc2ccccc21` [Compound 1-2, 2-(2-(2,2,3,3,3-pentafluoropropyloxy)pyridin-5-yl)-1-ethanesulfonyl benzimidazole] was tested. Which “acaricidal efficacy” value did it give?
Answer: The value was “D or higher”.

Question: Which “acaricidal efficacy” value does the source give for `CS(=O)(=O)n1c(-c2ccc(OCC(F)(F)C(F)(F)F)nc2)nc2ccccc21` [Compound 1-3] here?
Answer: Its value is “D or higher”.

Question: For `CCCS(=O)(=O)n1c(-c2ccc(OCC(F)(F)C(F)(F)F)nc2)nc2ccccc21` [Compound 1-4], which “acaricidal efficacy” value is on record?
Answer: Its value is “D or higher”.

Question: For `CCCCS(=O)(=O)n1c(-c2ccc(OCC(F)(F)C(F)(F)F)nc2)nc2ccccc21` [Compound 1-5], which “acaricidal efficacy” value is on record?
Answer: The value was “D or higher”.

Question: `CCS(=O)(=O)n1c(-c2ccc(OCC(F)(F)C(F)(F)F)nc2)nc2ccc(Br)cc21` [Compound 1-10] was tested. Which “acaricidal efficacy” value did it give?
Answer: Its value is “D or higher”.

Question: Which “acaricidal efficacy” value does the source give for `CCS(=O)(=O)n1c(-c2ccc(OCC(F)(F)C(F)(F)F)nc2)nc2cc(Cl)ccc21` [Compound 1-12] here?
Answer: The value was “D or higher”.

Question: With `CCS(=O)(=O)n1c(-c2ccc(OCC(F)(F)C(F)(F)F)nc2)nc2ccc(Cl)cc21` [Compound 1-13] as the molecule, how does the “acaricidal efficacy” value read?
Answer: The value was “D or higher”.

Question: Which “acaricidal efficacy” value does the source give for `CCS(=O)(=O)n1c(-c2ccc(OCC(F)(F)C(F)(F)F)nc2)nc2cc(Cl)c(Cl)cc21` [Compound 1-14] here?
Answer: Its value is “D or higher”.

Question: How did the “acaricidal efficacy” value turn out when `CCS(=O)(=O)n1c(-c2ccc(OCC(F)(F)C(F)(F)F)nc2)nc2cc(Br)c(Br)cc21` [Compound 1-15] was run?
Answer: The value was “D or higher”.

Question: Which “acaricidal efficacy” value does the source give for `CCS(=O)(=O)n1c(-c2ccc(OCC(F)(F)C(F)(F)F)nc2)nc2cc(C)c(C)cc21` [Compound 1-17] here?
Answer: The value was “D or higher”.

Question: Which “acaricidal efficacy” value does the source give for `CCS(=O)(=O)n1c(-c2cnc(OCC(F)(F)C(F)(F)F)c(Cl)c2)nc2ccccc21` [Compound 1-18] here?
Answer: The value was “D or higher”.

Question: Which “acaricidal efficacy” value does the source give for `CCS(=O)(=O)n1c(-c2ccc(OCC(F)(F)C(F)F)nc2)nc2ccccc21` [Compound 1-19] here?
Answer: The value was “D or higher”.

Question: Which “acaricidal efficacy” value does the source give for `CCS(=O)(=O)n1c(-c2ccc(OCC(F)(F)C(F)(F)C(F)(F)F)nc2)nc2ccccc21` [Compound 1-20] here?
Answer: Its value is “D or higher”.

Question: For `CCS(=O)(=O)n1c(-c2ccc(OCC(F)(F)C(F)(F)C(F)(F)F)nc2)nc2ccc(Br)cc21` [Compound 1-22], which “acaricidal efficacy” value is on record?
Answer: Its value is “D or higher”.

Question: `CCS(=O)(=O)n1c(-c2ccc(OC(C(F)(F)F)C(F)(F)F)nc2)nc2ccccc21` [Compound 1-23] was tested. Which “acaricidal efficacy” value did it give?
Answer: Its value is “D or higher”.

Question: How did the “acaricidal efficacy” value turn out when `CCS(=O)(=O)n1c(-c2ccc(OCC(F)(F)C(F)C(F)(F)F)nc2)nc2ccccc21` (centres unmarked) [Compound 1-24] was run?
Answer: Its value is “D or higher”.

Question: Which “acaricidal efficacy” value does the source give for `CCS(=O)(=O)n1c(-c2ccc(Oc3ccc(SC(F)(F)F)cc3)nc2)nc2ccccc21` [Compound 1-40] here?
Answer: Its value is “D or higher”.

Question: How did the “acaricidal efficacy” value turn out when `CCS(=O)(=O)n1c(-c2ccc(Oc3ccc([S+]([O-])C(F)(F)F)cc3)nc2)nc2ccccc21` (centres unmarked) [Compound 1-41] was run?
Answer: The value was “D or higher”.

Question: Which “acaricidal efficacy” value does the source give for `CCS(=O)(=O)n1c(-c2ccc(Oc3ccc(S(=O)(=O)C(F)(F)F)cc3)nc2)nc2ccccc21` [Compound 1-42] here?
Answer: The value was “D or higher”.

Question: `CCS(=O)(=O)n1c(-c2ccc(OCc3ccc(SC(F)(F)F)cc3)nc2)nc2ccccc21` [Compound 1-43] was tested. Which “acaricidal efficacy” value did it give?
Answer: The value was “D or higher”.

Question: Which “acaricidal efficacy” value does the source give for `CCS(=O)(=O)n1c(-c2ccc(OCc3ccc([S+]([O-])C(F)(F)F)cc3)nc2)nc2ccccc21` (centres unmarked) [Compound 1-44] here?
Answer: Its value is “D or higher”.

Question: For `O=S(=O)(CCl)n1c(-c2ccc(OCC(F)(F)C(F)(F)F)nc2)nc2ccccc21` [Compound 1-45], which “acaricidal efficacy” value is on record?
Answer: The value was “D or higher”.

Question: `CCS(=O)(=O)n1c(-c2ccc(Oc3ccc(OC(F)(F)F)cc3)nc2)nc2ccccc21` [Compound 1-46] was tested. Which “acaricidal efficacy” value did it give?
Answer: The value was “D or higher”.

Question: Which “acaricidal efficacy” value does the source give for `CCCCOc1ccc(-c2nc3ccccc3n2S(=O)(=O)CC)cn1` [Compound 1-47] here?
Answer: The value was “D or higher”.

Question: `CCCCCOc1ccc(-c2nc3ccccc3n2S(=O)(=O)CC)cn1` [Compound 1-48] was tested. Which “acaricidal efficacy” value did it give?
Answer: Its value is “D or higher”.

Question: Which “acaricidal efficacy” value does the source give for `CCCCCCOc1ccc(-c2nc3ccccc3n2S(=O)(=O)CC)cn1` [Compound 1-49] here?
Answer: The value was “D or higher”.

Question: `CCS(=O)(=O)n1c(-c2ccc(OC3CCCC3)nc2)nc2ccccc21` [Compound 1-50] was tested. Which “acaricidal efficacy” value did it give?
Answer: Its value is “D or higher”.

Question: With `CCS(=O)(=O)n1c(-c2ccc(OC3CCCCCC3)nc2)nc2ccccc21` [Compound 1-51] as the molecule, how does the “acaricidal efficacy” value read?
Answer: The value was “D or higher”.

Question: How did the “acaricidal efficacy” value turn out when `CCS(=O)(=O)n1c(-c2cncc(OCC(F)(F)C(F)(F)F)c2)nc2ccccc21` [Compound 3-1] was run?
Answer: The value was “D or higher”.

Question: How did the “acaricidal efficacy” value turn out when `CCCOc1ccc(-c2nc3ccccc3n2S(=O)(=O)CC)cn1` [Compound 5-1] was run?
Answer: Its value is “D or higher”.

Question: How did the “acaricidal efficacy” value turn out when `CCS(=O)(=O)n1c(-c2ccc(OC(C)C)nc2)nc2ccccc21` [Compound 5-2] was run?
Answer: Its value is “D or higher”.

Question: How did the “acaricidal efficacy” value turn out when `CCS(=O)(=O)n1c(-c2ccc(OC3CCCCC3)nc2)nc2ccccc21` [Compound 5-3] was run?
Answer: Its value is “D or higher”.

Question: With `CCS(=O)(=O)n1c(-c2ccc(OCCC(C)(C)C)nc2)nc2ccccc21` [Compound 5-4] as the molecule, how does the “acaricidal efficacy” value read?
Answer: Its value is “D or higher”.

Question: How did the “acaricidal efficacy” value turn out when `CCS(=O)(=O)n1c(-c2ccc(OCCOC)nc2)nc2ccccc21` [Compound 5-5] was run?
Answer: Its value is “D or higher”.

Question: `CCS(=O)(=O)n1c(-c2ccc(OCCSC)nc2)nc2ccccc21` [Compound 5-6] was tested. Which “acaricidal efficacy” value did it give?
Answer: Its value is “D or higher”.

Question: `CCS(=O)(=O)n1c(-c2ccc(Oc3ccc([Si](C)(C)C)cc3)nc2)nc2ccccc21` [Compound 5-8] was tested. Which “acaricidal efficacy” value did it give?
Answer: The value was “D or higher”.

Question: With `CCS(=O)(=O)n1c(-c2cnc(OCC(F)(F)F)c(Cl)c2)nc2ccccc21` [Compound 5-9] as the molecule, how does the “acaricidal efficacy” value read?
Answer: Its value is “D or higher”.

Question: For `CCS(=O)(=O)n1c(-c2cnc(OCC(F)(F)C(F)F)c(Cl)c2)nc2ccccc21` [Compound 5-10], which “acaricidal efficacy” value is on record?
Answer: The value was “D or higher”.

Question: Which “acaricidal efficacy” value does the source give for `CCS(=O)(=O)n1c(-c2ccc(OCCC(F)(F)C(F)(F)C(F)(F)C(F)(F)C(F)(F)C(F)(F)F)nc2)nc2ccccc21` [Compound 5-11] here?
Answer: The value was “D or higher”.

Question: How did the “acaricidal efficacy” value turn out when `CCS(=O)(=O)n1c(-c2ccc(OCC(F)(F)C(F)(F)C(F)(F)C(F)(F)C(F)(F)C(F)F)nc2)nc2ccccc21` [Compound 5-12] was run?
Answer: Its value is “D or higher”.

Question: `CCCSc1ccc(-c2nc3ccccc3n2S(=O)(=O)CC)cn1` [Compound 5-14] was tested. Which “acaricidal efficacy” value did it give?
Answer: The value was “D or higher”.

Question: With `CCCCSc1ccc(-c2nc3ccccc3n2S(=O)(=O)CC)cn1` [Compound 5-17] as the molecule, how does the “acaricidal efficacy” value read?
Answer: Its value is “D or higher”.

Question: For `CCS(=O)(=O)n1c(-c2ccc(SC3CCCC3)nc2)nc2ccccc21` [Compound 5-18], which “acaricidal efficacy” value is on record?
Answer: Its value is “D or higher”.

Question: `CCS(=O)(=O)n1c(-c2ccc(SC3CCCCC3)nc2)nc2ccccc21` [Compound 5-19] was tested. Which “acaricidal efficacy” value did it give?
Answer: Its value is “D or higher”.

Question: How did the “acaricidal efficacy” value turn out when `CCS(=O)(=O)n1c(-c2ccc(SCC3CC3)nc2)nc2ccccc21` [Compound 5-20] was run?
Answer: Its value is “D or higher”.

Question: How did the “acaricidal efficacy” value turn out when `CCS(=O)(=O)n1c(-c2ccc(SCc3ccccc3)nc2)nc2ccccc21` [Compound 5-21] was run?
Answer: Its value is “D or higher”.

Question: Which “acaricidal efficacy” value does the source give for `CCCCN(CCCC)c1ccc(-c2nc3ccccc3n2S(=O)(=O)CC)cn1` [Compound 5-24] here?
Answer: Its value is “D or higher”.

Question: `CCCCN(C)c1ccc(-c2nc3ccccc3n2S(=O)(=O)CC)cn1` [Compound 5-25] was tested. Which “acaricidal efficacy” value did it give?
Answer: The value was “D or higher”.

What follows are molecules tested on Diamondback moth (Plutella xylostella) (assay: Insecticidal test on diamondback moth, dip of Chinese cabbage seedlings with laid eggs). Conditions: 144 h, dip about 30 seconds, 25° C., 6 days after dip treatment, hatched larvae counted, read-out: insecticidal efficacy (corrected mortality rate) activity level.
Type: in vivo
Text: Insecticidal Test on Diamondback Moth (Plutella xylostella)
Adults of diamondback moth were released onto Chinese cabbage seedlings and allowed to lay eggs thereon. At 2 days after the release of the adults, the Chinese cabbage seedlings with laid eggs were dipped for about 30 seconds in agrochemical dispersions diluted to 500 ppm, each of which contained a different benzimidazole compound represented by the general formula (1) of the present invention or salt thereof as an active ingredient. After air-dried, the seedlings were kept in a thermostatic chamber at 25° C. At 6 days after the dip treatment, the number of hatched larvae per plot was counted, the corrected mortality rate was calculated according to the formula shown below, and the insecticidal efficacy was evaluated according to the criteria of Test Example 2. This test was conducted in triplicate using 10 adults of diamondback moth per plot. Corrected mortality rate (%)=(Number of hatched larvae in a non-treatment plot−Number of hatched larvae in a treatment plot)/(Number of hatched larvae in a non-treatment plot)×100 [Expression 3]

Question: `CCS(=O)(=O)n1c(-c2ccc(OCC(F)(F)C(F)(F)F)nc2)nc2ccccc21` [Compound 1-2, 2-(2-(2,2,3,3,3-pentafluoropropyloxy)pyridin-5-yl)-1-ethanesulfonyl benzimidazole] was tested. Which mortality at 500 ppm did it give?
Answer: The mortality at 500 ppm was 100%.
